Experimental data from paper PMC3577938 (Organic & biomolecular chemistry, 2013).

Tests used:
Type in all cases: cell-based
[1] = test system: human peripheral blood mononuclear cells (hPBMC); assay: Cytokine induction in human PBMCs; conditions: human PBMCs stimulated 12 h
human TLR7 or human TLR8 = conditions: for agonistic activity (in words): primary TLR8/TLR7 reporter gene assays, receptor not given; for TLR8 versus TLR7 selectivity (in words): primary reporter gene screens
human TLR7 = target: T1, human TLR7 (Homo sapiens, UniProt Q9NYK1); assay: Human TLR7-specific reporter gene assay; conditions: EC50 in human TLR7-specific reporter gene assay; Inactive = EC50 >100 μM
T1 sequence (Q9NYK1 27-1049): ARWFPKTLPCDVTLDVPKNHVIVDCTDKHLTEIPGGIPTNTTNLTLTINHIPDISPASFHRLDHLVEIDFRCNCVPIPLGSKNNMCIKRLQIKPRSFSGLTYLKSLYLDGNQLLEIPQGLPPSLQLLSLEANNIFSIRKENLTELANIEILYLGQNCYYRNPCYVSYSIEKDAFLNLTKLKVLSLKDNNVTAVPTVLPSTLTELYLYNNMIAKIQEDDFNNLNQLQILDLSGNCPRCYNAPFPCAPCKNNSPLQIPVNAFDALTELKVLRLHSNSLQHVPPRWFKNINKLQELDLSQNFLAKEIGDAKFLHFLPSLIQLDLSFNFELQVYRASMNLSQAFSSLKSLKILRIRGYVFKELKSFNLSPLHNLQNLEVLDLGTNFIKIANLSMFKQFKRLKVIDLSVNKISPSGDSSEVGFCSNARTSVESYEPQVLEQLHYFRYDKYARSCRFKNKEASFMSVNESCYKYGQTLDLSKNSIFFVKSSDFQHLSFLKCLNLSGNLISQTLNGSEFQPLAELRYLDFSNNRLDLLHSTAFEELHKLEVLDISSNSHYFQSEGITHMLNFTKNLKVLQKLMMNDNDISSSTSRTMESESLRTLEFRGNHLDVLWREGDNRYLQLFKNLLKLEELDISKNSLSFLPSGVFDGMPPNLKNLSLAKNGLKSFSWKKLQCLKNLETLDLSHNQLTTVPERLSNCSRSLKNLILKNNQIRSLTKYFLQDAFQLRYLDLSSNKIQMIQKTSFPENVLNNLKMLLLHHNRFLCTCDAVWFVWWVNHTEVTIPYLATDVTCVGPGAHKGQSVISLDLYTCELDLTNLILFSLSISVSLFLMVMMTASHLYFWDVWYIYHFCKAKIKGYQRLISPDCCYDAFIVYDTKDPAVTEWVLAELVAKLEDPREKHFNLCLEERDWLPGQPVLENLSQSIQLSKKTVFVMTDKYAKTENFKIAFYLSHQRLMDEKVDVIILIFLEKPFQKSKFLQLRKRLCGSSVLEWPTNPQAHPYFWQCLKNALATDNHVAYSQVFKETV

human TLR8 = target: T2, human TLR8 (Homo sapiens, UniProt Q9NR97); assay: Human TLR8-specific reporter gene assay; conditions: EC50 in human TLR8-specific reporter gene assay; Inactive = EC50 >100 μM
T2 sequence (Q9NR97 27-1041): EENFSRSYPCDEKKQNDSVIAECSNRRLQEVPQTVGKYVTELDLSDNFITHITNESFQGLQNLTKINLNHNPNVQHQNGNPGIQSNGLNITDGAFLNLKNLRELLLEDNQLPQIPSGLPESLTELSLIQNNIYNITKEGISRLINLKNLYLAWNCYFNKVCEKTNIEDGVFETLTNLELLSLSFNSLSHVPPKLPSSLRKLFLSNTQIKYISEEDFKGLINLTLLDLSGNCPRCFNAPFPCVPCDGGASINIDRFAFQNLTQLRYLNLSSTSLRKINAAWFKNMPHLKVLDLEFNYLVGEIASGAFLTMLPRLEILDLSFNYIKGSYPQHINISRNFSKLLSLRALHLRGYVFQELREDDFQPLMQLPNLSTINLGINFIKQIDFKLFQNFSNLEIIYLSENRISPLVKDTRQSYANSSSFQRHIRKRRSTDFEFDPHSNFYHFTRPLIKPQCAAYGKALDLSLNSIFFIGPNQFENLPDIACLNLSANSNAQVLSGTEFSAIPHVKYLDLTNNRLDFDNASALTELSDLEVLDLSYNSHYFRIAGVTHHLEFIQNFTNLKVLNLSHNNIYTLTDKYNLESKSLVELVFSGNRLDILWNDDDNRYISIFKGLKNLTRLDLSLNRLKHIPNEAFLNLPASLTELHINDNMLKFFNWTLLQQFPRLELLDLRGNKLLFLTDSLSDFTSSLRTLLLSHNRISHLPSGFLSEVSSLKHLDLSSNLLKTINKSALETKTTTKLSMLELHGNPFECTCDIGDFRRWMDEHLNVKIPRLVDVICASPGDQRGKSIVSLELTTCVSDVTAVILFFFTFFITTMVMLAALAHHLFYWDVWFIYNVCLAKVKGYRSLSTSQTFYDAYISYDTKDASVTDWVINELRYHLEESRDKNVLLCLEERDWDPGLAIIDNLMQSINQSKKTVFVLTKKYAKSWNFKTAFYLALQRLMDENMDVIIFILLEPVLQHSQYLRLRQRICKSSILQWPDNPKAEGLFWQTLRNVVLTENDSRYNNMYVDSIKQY

Row | SMILES | proinflammatory cytokine induction in hPBMCs (in words) [1] | agonistic activity (in words) (human TLR7 or human TLR8) | TLR8 versus TLR7 selectivity (in words) (human TLR7 or human TLR8) | Agonistic Activity (μM) TLR7 (human TLR7) | Agonistic Activity (μM) TLR8 (human TLR8)
1 | CC(C)Cc1nc2c(N)nc3ccccc3c2s1 [Compound 8j, 2-isobutylthiazolo[4,5-c]quinolin-4-amine] | inferior in their cytokine induction profiles | well tolerated | substantially more TLR8-selective |  | 
2 | CC(C)(C)Cc1nc2c(N)nc3ccccc3c2s1 [Compound 8k, 2-neopentylthiazolo[4,5-c]quinolin-4-amine] |  | inactive |  | Inactive | Inactive
3 | CC(C)CCc1nc2c(N)nc3ccccc3c2s1 [Compound 8l, 2-isopentylthiazolo[4,5-c]quinolin-4-amine] |  | entirely inactive |  | Inactive | Inactive
4 | CC(C)(C)CCc1nc2c(N)nc3ccccc3c2s1 [Compound 8m, 2-(3,3-dimethylbutyl)thiazolo[4,5-c]quinolin-4-amine] |  | inactive |  | Inactive | Inactive
5 | CC[C@H](C)c1nc2c(N)nc3ccccc3c2s1 [Compound 8n, (S)-2-(sec-butyl)thiazolo[4,5-c]quinolin-4-amine] | inferior in their cytokine induction profiles | well tolerated | substantially more TLR8-selective |  | 
6 | CC[C@H](C)Cc1nc2c(N)nc3ccccc3c2s1 [Compound 8o, (S)-2-(2-methylbutyl)thiazolo[4,5-c]quinolin-4-amine] | inferior in their cytokine induction profiles | active | substantially more TLR8-selective |  | 
7 | CCCc1nc2c(N)nc3ccc([N+](=O)[O-])cc3c2s1 [Compound 9, 8-nitro-2-propylthiazolo[4,5-c]quinolin-4-amine] |  | inactive |  | Inactive | Inactive
8 | CCCc1nc2c(N)nc3ccc(N)cc3c2s1 [Compound 10, 2-propylthiazolo[4,5-c]quinoline-4,8-diamine] |  | attenuated activity relative to 8c |  |  | 
9 | CCCc1nc2c(N)nc3ccc(N=[N+]=[N-])cc3c2s1 [Compound 11, 8-azido-2-propylthiazolo[4,5-c]quinolin-4-amine] |  | inactive |  |  | 
10 | CCCCCCNc1ccc2nc(N)c3nc(CCC)sc3c2c1 [Compound 13a, N^8-hexyl-2-propylthiazolo[4,5-c]quinoline-4,8-diamine] |  | inactive |  | Inactive | Inactive
11 | CCCC(=O)Nc1ccc2nc(N)c3nc(CCC)sc3c2c1 [Compound 13b, N-(4-amino-2-propylthiazolo[4,5-c]quinolin-8-yl)butyramide] |  | inactive |  | Inactive | Inactive
12 | CCCc1nc2c(N)nc3ccc(Br)cc3c2s1 [Compound 14, 8-bromo-2-propylthiazolo[4,5-c]quinolin-4-amine] |  | inactive |  | Inactive | Inactive
13 | CCCCNc1nc2ccccc2c2sc(CCC)nc12 [Compound 15a, N-butyl-2-propylthiazolo[4,5-c]quinolin-4-amine] |  | devoid of any agonistic activity |  | Inactive | Inactive
14 | CCCCCCNc1nc2ccccc2c2sc(CCC)nc12 [Compound 15b, N-hexyl-2-propylthiazolo[4,5-c]quinolin-4-amine] |  | devoid of any agonistic activity |  | Inactive | Inactive
15 | CCCC(=O)Nc1nc2ccccc2c2sc(CCC)nc12 [Compound 15f, N-(2-propylthiazolo[4,5-c]quinolin-4-yl)butyramide] |  | active |  | Inactive | 
16 | CCCCCCCC(=O)Nc1nc2ccccc2c2sc(CCC)nc12 [Compound 15g, N-(2-propylthiazolo[4,5-c]quinolin-4-yl)octanamide] |  | inactive |  | Inactive | Inactive
17 | CCCCCCCCCCCCCCCC(=O)Nc1nc2ccccc2c2sc(CCC)nc12 [Compound 15h, N-(2-propylthiazolo[4,5-c]quinolin-4-yl)palmitamide] |  | inactive |  | Inactive | Inactive
18 | CCCc1nc2c(NC(=O)c3ccccc3)nc3ccccc3c2s1 [Compound 15i, N-(2-propylthiazolo[4,5-c]quinolin-4-yl)benzamide] |  | entirely inactive |  | Inactive | Inactive
19 | CCCc1nc2c(NC(N)=O)nc3ccccc3c2s1 [Compound 15q, 1-(2-propylthiazolo[4,5-c]quinolin-4-yl)urea] |  | inactive |  | Inactive | Inactive
20 | CCCc1nc2c(NC(=N)N)nc3ccccc3c2s1 [Compound 17, 1-(2-propylthiazolo[4,5-c]quinolin-4-yl)guanidine] |  | inactive |  | Inactive | Inactive
21 | CCCCc1nc2c(NC(C)=O)nc3ccccc3c2s1 [Compound 18b, N-(2-butylthiazolo[4,5-c]quinolin-4-yl)acetamide] |  | selective loss of activity |  | Inactive | Inactive
